Here are results for two substances from patent US7696339B2, “Nucleic acid encoding monkey QRFP” (Banyu Pharmaceutical Co., Ltd., priority 2004, dated 2010).

Common to all, as to assay type: cell-based
In assay [1] the target is T1, human GPR103 (Homo sapiens, UniProt Q96P65).
T1 construct: expressed in transfected cells; host or cells: CHO cells, Geneticin-selected, single clone by limiting dilution
T1 sequence (Q96P65 1-431): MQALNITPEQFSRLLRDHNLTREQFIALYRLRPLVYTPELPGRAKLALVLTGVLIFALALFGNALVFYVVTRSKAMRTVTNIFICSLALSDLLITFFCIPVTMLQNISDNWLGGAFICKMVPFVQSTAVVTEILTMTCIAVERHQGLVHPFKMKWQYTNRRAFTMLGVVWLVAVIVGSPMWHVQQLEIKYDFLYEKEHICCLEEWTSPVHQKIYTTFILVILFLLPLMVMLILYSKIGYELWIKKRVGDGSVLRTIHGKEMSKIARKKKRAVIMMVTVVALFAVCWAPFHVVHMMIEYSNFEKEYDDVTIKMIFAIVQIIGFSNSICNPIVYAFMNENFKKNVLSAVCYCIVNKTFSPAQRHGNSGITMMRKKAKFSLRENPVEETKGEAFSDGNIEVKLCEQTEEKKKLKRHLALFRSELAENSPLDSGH
In words: Intracellular calcium ion concentration increasing activity (FLIPR) in human GPR103 gene-expressing CHO cells. The following applies: Fluo4, read-out: 50% effective concentration, intracellular calcium ion concentration increasing activity. How it is done: (§1) CHO cells were transfected with pEF1/V5-HisB plasmid vector carrying the monkey GPR103 gene or human GPR103 gene obtained in Example 1 and the same vector without the insert (mock), and Geneticin (Invitrogen Corp.) was added to the medium to a final concentration of 2 mg/ml for selection of expressing cells. Next, the monkey or human GPR103 gene-expressing cells were singly cloned by the limiting dilution method and supplied for the following test. The monkey QRFP43 and QRFP26 synthesized by the method described in Example 6 were also supplied for the test.
(§2) After 24 hours of culturing, the cells were seeded in a 96-well poly-D-lysine coated black culture plate (Becton Dickinson) at 2.5×10^4 cells/well and cultured for two nights. […] Different concentrations of monkey QRFP43 or QRFP26 dissolved in the assay buffer were also set in the FLIPR, and then a sample was added to the cells and the change in intracellular calcium ion concentration-dependent fluorescence produced by irradiation with exciting light was measured.
(§3) Defining the change in fluorescence as the difference between the fluorescence immediately before addition of monkey QRFP43 or QRFP26 and the maximum value after addition, a Prism Version 4.00 (GraphPad) was used to graph the change in fluorescence due to each concentration of peptide (protein), and the 50% effective concentration was determined.
In general terms: Calcium assays in cells follow changes in intracellular calcium, usually with a dye or a luminescent sensor.

For assay [2], the system named is CHO cells transfected with the mock vector. In words: Intracellular calcium ion concentration change in CHO cells transfected with the mock vector. Here is the method: as §1, §2, §3
Assay [3] has as its system monkey GPR103. In words: Intracellular calcium ion concentration increasing activity (FLIPR) in monkey GPR103 gene-expressing CHO cells. Conditions: Fluo4, read-out: 50% effective concentration, intracellular calcium ion concentration increasing activity. Here is the method:
as §1, §2, §3

Square brackets hold non-standard residues; d marks the D form. pGlu = O=C1CC[C@@H](C(=O)O)N1

Turning to “H-ASGPLGNLAEELNGYSRKKGGFSFRF-NH2 [monkey QRFP26]”, the figures for the EC50 in assay [1] and in assay [3] were 1.7 nM and 9.2 nM, respectively. The “change in intracellular calcium ion concentration” value in assay [2] was “no change”.
The like results for “[pGlu]DEGSEADDFLPAGGVKASGPLGNLAEELNGYSRKKGGFSFRF-NH2 [monkey QRFP43]” were, in that order, 58 nM, 69 nM and “no change”.
